Experimental data: ChEMBL document CHEMBL1201862, “PubChem BioAssay data set” (2004)
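A five-concentration, 48-hour dose response in 96-well plates underlies each endpoint, interpolated linearly between surrounding concentrations. Here, GI50 denotes the concentration required for 50% inhibition of growth.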 The source made the active and inactive calls. No stated cut-off is given here; in the data, active = GI50 up to about 1.1 µM and inactive = higher.

How the values were obtained:
Test in all cases: growth of human tumour cells (NCI), 48 h
LOX IMVI = system: LOX IMVI
HOP-92 = system: HOP-92
A549 = system: A549
UACC-257 = system: UACC-257
DLD-1 = system: DLD-1
OVCAR-4 = system: OVCAR-4
DMS-273 = system: DMS-273
786-0 = system: 786-0
NCI-H226 = system: NCI-H226
KM-20L2 = system: KM-20L2
SF-268 = system: SF-268
UACC-62 = system: UACC-62
ACHN = system: ACHN
RPMI-8226 = system: RPMI-8226
CAKI-1 = system: CAKI-1
DMS-114 = system: DMS-114
NCI-H522 = system: NCI-H522
MOLT-4 = system: MOLT-4
EKVX = system: EKVX
UO-31 = system: UO-31
SK-OV-3 = system: SK-OV-3
HCT-116 = system: HCT-116
SF-539 = system: SF-539
KM12 = system: KM12
RXF 393 = system: RXF 393
Malme-3M = system: Malme-3M
HCC 2998 = system: HCC 2998
CCRF-CEM = system: CCRF-CEM
XF498 = system: XF498
NCI-H23 = system: NCI-H23
HT-29 = system: HT-29
A498 = system: A498
IGROV-1 = system: IGROV-1
OVCAR-8 = system: OVCAR-8
OVCAR-5 = system: OVCAR-5
LXFL 529 = system: LXFL 529
K562 = system: K562
COLO 205 = system: COLO 205
SNB-78 = system: SNB-78
HOP-18 = system: HOP-18
OVCAR-3 = system: OVCAR-3
SR = system: SR
M19-MEL = system: M19-MEL
SK-MEL-28 = system: SK-MEL-28
SF-295 = system: SF-295
U-251 = system: U-251
HL-60 = system: HL-60
M14 = system: M14
SW-620 = system: SW-620
SNB-19 = system: SNB-19
NCI-H460 = system: NCI-H460
SN12C = system: SN12C
SNB-75 = system: SNB-75
HOP-62 = system: HOP-62
TK-10 = system: TK-10

How did the GI50 (LOX IMVI) turn out when `Cc1c(C(=O)/C=C/c2ccc([N+](=O)[O-])cc2)[n+]([O-])c2ccccc2[n+]1[O-]` was run?
The GI50 was 42.3 µM (inactive).

And the GI50 (HOP-92)?
Its GI50 is 31.8 µM (inactive).

And the GI50 (A549)?
Its GI50 is > 100 µM (inactive).

And the GI50 (UACC-257)?
Its GI50 is > 100 µM (inactive).

What about the GI50 (DLD-1) of the same molecule?
Its GI50 is 42.7 µM (inactive).

What about the GI50 (OVCAR-4) of the same molecule?
Its GI50 is 24.8 µM (inactive).

What about the GI50 (DMS-273) of the same molecule?
The GI50 was 57.3 µM (inactive).

What about the GI50 (786-0) of the same molecule?
Its GI50 is 52.1 µM (inactive).

What about the GI50 (NCI-H226) of the same molecule?
Its GI50 is > 100 µM (inactive).

And the GI50 (KM-20L2)?
The GI50 was > 100 µM (inactive).

What about the GI50 (SF-268) of the same molecule?
The GI50 was > 100 µM (inactive).

What about the GI50 (UACC-62) of the same molecule?
Its GI50 is 41.7 µM (inactive).

What about the GI50 (ACHN) of the same molecule?
Its GI50 is > 100 µM (inactive).

And the GI50 (RPMI-8226)?
The GI50 was 33.6 µM (inactive).

What about the GI50 (CAKI-1) of the same molecule?
Its GI50 is 64.7 µM (inactive).

What about the GI50 (DMS-114) of the same molecule?
The GI50 was 30.6 µM (inactive).

What about the GI50 (NCI-H522) of the same molecule?
Its GI50 is 20.5 µM (inactive).

And the GI50 (MOLT-4)?
The GI50 was 20.7 µM (inactive).

What about the GI50 (EKVX) of the same molecule?
Its GI50 is > 100 µM (inactive).

And the GI50 (UO-31)?
Its GI50 is > 100 µM (inactive).

What about the GI50 (SK-OV-3) of the same molecule?
Its GI50 is > 100 µM (inactive).

What about the GI50 (HCT-116) of the same molecule?
Its GI50 is 48.4 µM (inactive).

What about the GI50 (SF-539) of the same molecule?
The GI50 was 49.1 µM (inactive).

And the GI50 (KM12)?
The GI50 was 93.5 µM (inactive).

What about the GI50 (RXF 393) of the same molecule?
The GI50 was 29.1 µM (inactive).

What about the GI50 (Malme-3M) of the same molecule?
Its GI50 is > 100 µM (inactive).

What about the GI50 (HCC 2998) of the same molecule?
Its GI50 is > 100 µM (inactive).

What about the GI50 (CCRF-CEM) of the same molecule?
Its GI50 is 20.9 µM (inactive).

And the GI50 (XF498)?
Its GI50 is > 100 µM (inactive).

And the GI50 (NCI-H23)?
The GI50 was 28.2 µM (inactive).

What about the GI50 (HT-29) of the same molecule?
The GI50 was 96.6 µM (inactive).

And the GI50 (A498)?
The GI50 was > 100 µM (inactive).

And the GI50 (IGROV-1)?
Its GI50 is 55.7 µM (inactive).

What about the GI50 (OVCAR-8) of the same molecule?
The GI50 was 55.3 µM (inactive).

And the GI50 (OVCAR-5)?
Its GI50 is > 100 µM (inactive).

And the GI50 (LXFL 529)?
Its GI50 is 29.2 µM (inactive).

And the GI50 (K562)?
The GI50 was 27 µM (inactive).

What about the GI50 (COLO 205) of the same molecule?
The GI50 was > 100 µM (inactive).

What about the GI50 (SNB-78) of the same molecule?
Its GI50 is 65.5 µM (inactive).

And the GI50 (HOP-18)?
The GI50 was > 100 µM (inactive).

What about the GI50 (OVCAR-3) of the same molecule?
The GI50 was 95.7 µM (inactive).

What about the GI50 (SR) of the same molecule?
The GI50 was 43 µM (inactive).

What about the GI50 (M19-MEL) of the same molecule?
Its GI50 is > 100 µM (inactive).

And the GI50 (SK-MEL-28)?
The GI50 was > 100 µM (inactive).

And the GI50 (SF-295)?
The GI50 was > 100 µM (inactive).

What about the GI50 (U-251) of the same molecule?
Its GI50 is 92.5 µM (inactive).

What about the GI50 (HL-60) of the same molecule?
The GI50 was 0.923 µM (active).

What about the GI50 (M14) of the same molecule?
The GI50 was > 100 µM (inactive).

And the GI50 (SW-620)?
The GI50 was 67 µM (inactive).

And the GI50 (SNB-19)?
Its GI50 is > 100 µM (inactive).

And the GI50 (NCI-H460)?
Its GI50 is 62.2 µM (inactive).

And the GI50 (SN12C)?
The GI50 was > 100 µM (inactive).

What about the GI50 (SNB-75) of the same molecule?
Its GI50 is 41.4 µM (inactive).

And the GI50 (HOP-62)?
The GI50 was > 100 µM (inactive).

And the GI50 (TK-10)?
Its GI50 is > 100 µM (inactive).
